In ChEMBL document CHEMBL1201862, “PubChem BioAssay data set” (2004):
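In this assay, cells in 96-well plates receive the compound at five concentrations for 48 hours. Endpoints are linearly interpolated between the surrounding concentrations. GI50 marks 50% less growth.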 Calls of active or inactive are those of the source. No stated cut-off is given here; in the data, active = GI50 up to about 1.1 µM and inactive = higher.

Assays:
Test in all cases: NCI tumour cell line growth inhibition, 48 h
LOX IMVI = tested on: LOX IMVI
SF-295 = tested on: SF-295
M14 = tested on: M14
KM12 = tested on: KM12
M19-MEL = tested on: M19-MEL
DMS-273 = tested on: DMS-273
OVCAR-4 = tested on: OVCAR-4
SF-539 = tested on: SF-539
HCT-116 = tested on: HCT-116
DMS-114 = tested on: DMS-114
OVCAR-3 = tested on: OVCAR-3
Malme-3M = tested on: Malme-3M
RXF 393 = tested on: RXF 393
NCI-H522 = tested on: NCI-H522
DLD-1 = tested on: DLD-1
XF498 = tested on: XF498
UACC-62 = tested on: UACC-62
SK-MEL-5 = tested on: SK-MEL-5
OVCAR-5 = tested on: OVCAR-5
CCRF-CEM = tested on: CCRF-CEM
SNB-75 = tested on: SNB-75
SK-OV-3 = tested on: SK-OV-3
SK-MEL-2 = tested on: SK-MEL-2
COLO 205 = tested on: COLO 205
NCI-H23 = tested on: NCI-H23
HOP-62 = tested on: HOP-62
LXFL 529 = tested on: LXFL 529
OVCAR-8 = tested on: OVCAR-8
U-251 = tested on: U-251
ACHN = tested on: ACHN
SW-620 = tested on: SW-620
UO-31 = tested on: UO-31
SNB-78 = tested on: SNB-78
EKVX = tested on: EKVX
HOP-18 = tested on: HOP-18
A498 = tested on: A498
NCI-H460 = tested on: NCI-H460
SF-268 = tested on: SF-268
HCC 2998 = tested on: HCC 2998
NCI-H226 = tested on: NCI-H226
HCT-15 = tested on: HCT-15
UACC-257 = tested on: UACC-257
TK-10 = tested on: TK-10
SN12C = tested on: SN12C
SNB-19 = tested on: SNB-19
KM-20L2 = tested on: KM-20L2
786-0 = tested on: 786-0
IGROV-1 = tested on: IGROV-1
HT-29 = tested on: HT-29
HOP-92 = tested on: HOP-92
HL-60 = tested on: HL-60
SK-MEL-28 = tested on: SK-MEL-28
A549 = tested on: A549
MOLT-4 = tested on: MOLT-4
NCI/ADR-RES = tested on: NCI/ADR-RES
K562 = tested on: K562
CAKI-1 = tested on: CAKI-1
MCF7 = tested on: MCF7
RPMI-8226 = tested on: RPMI-8226

## CCCCCCCCCCCCCC(=O)CSCCNC(=O)CCNC(=O)[C@@H](O)C(C)(C)COP(=O)(O)OP(=O)(O)OCC1OC(n2cnc3c(N)ncnc32)C(O)C1OP(=O)(O)O (stereo partly specified)
LOX IMVI
  GI50: 18.4 µM (inactive)
SF-295
  GI50: 13.4 µM (inactive)
M14
  GI50: 18.1 µM (inactive)
KM12
  GI50: 14.6 µM (inactive)
M19-MEL
  GI50: 18.9 µM (inactive)
DMS-273
  GI50: 11.2 µM (inactive)
OVCAR-4
  GI50: 6.75 µM (inactive)
SF-539
  GI50: 16.2 µM (inactive)
HCT-116
  GI50: 15.8 µM (inactive)
DMS-114
  GI50: 15.6 µM (inactive)
OVCAR-3
  GI50: 38 µM (inactive)
Malme-3M
  GI50: 17.9 µM (inactive)
RXF 393
  GI50: 25 µM (inactive)
NCI-H522
  GI50: 10.6 µM (inactive)
DLD-1
  GI50: 19 µM (inactive)
XF498
  GI50: 18.5 µM (inactive)
UACC-62
  GI50: 15 µM (inactive)
SK-MEL-5
  GI50: 18.9 µM (inactive)
OVCAR-5
  GI50: 32.4 µM (inactive)
CCRF-CEM
  GI50: 24.4 µM (inactive)
SNB-75
  GI50: 5.7 µM (inactive)
SK-OV-3
  GI50: 14.6 µM (inactive)
SK-MEL-2
  GI50: 17.2 µM (inactive)
COLO 205
  GI50: 13.1 µM (inactive)
NCI-H23
  GI50: 18.7 µM (inactive)
HOP-62
  GI50: 16 µM (inactive)
LXFL 529
  GI50: 17.5 µM (inactive)
OVCAR-8
  GI50: 27.4 µM (inactive)
U-251
  GI50: 18 µM (inactive)
ACHN
  GI50: 18.2 µM (inactive)
SW-620
  GI50: 19.4 µM (inactive)
UO-31
  GI50: 14.4 µM (inactive)
SNB-78
  GI50: 15.5 µM (inactive)
EKVX
  GI50: 17.9 µM (inactive)
HOP-18
  GI50: 17.5 µM (inactive)
A498
  GI50: 18.4 µM (inactive)
NCI-H460
  GI50: 25.6 µM (inactive)
SF-268
  GI50: 20 µM (inactive)
HCC 2998
  GI50: 16.5 µM (inactive)
NCI-H226
  GI50: 18.2 µM (inactive)
HCT-15
  GI50: 17.1 µM
UACC-257
  GI50: 18.1 µM (inactive)
TK-10
  GI50: 68.2 µM (inactive)
SN12C
  GI50: 16.4 µM (inactive)
SNB-19
  GI50: 18.6 µM (inactive)
KM-20L2
  GI50: 19.4 µM (inactive)
786-0
  GI50: 15.5 µM (inactive)
IGROV-1
  GI50: 13.6 µM (inactive)
HT-29
  GI50: 18.8 µM (inactive)
HOP-92
  GI50: 11.5 µM (inactive)
HL-60
  GI50: 20.5 µM (inactive)
SK-MEL-28
  GI50: 18.3 µM (inactive)
A549
  GI50: 20.1 µM (inactive)

## COC(=O)[C@@H]1c2cc3c(c(O)c2[C@@H](OC)C[C@@]1(C)O)C(=O)c1c(O)cc2c(c1C3=O)OC1O[C@@]2(C)[C@H](O)[C@@H](N(C)C)[C@@H]1O
SF-295
  GI50: 0.213 µM (active)
MOLT-4
  GI50: 0.143 µM (active)
KM12
  GI50: 0.379 µM (active)
M19-MEL
  GI50: 0.266 µM (active)
DMS-273
  GI50: 0.118 µM (active)
OVCAR-4
  GI50: 0.395 µM (active)
SF-539
  GI50: 2.69 µM (inactive)
HCT-116
  GI50: 0.261 µM (active)
NCI/ADR-RES
  GI50: 2.06 µM (inactive)
DMS-114
  GI50: 0.217 µM (active)
OVCAR-3
  GI50: 0.361 µM (active)
Malme-3M
  GI50: 0.506 µM (active)
RXF 393
  GI50: 0.381 µM (active)
NCI-H522
  GI50: 0.445 µM (active)
DLD-1
  GI50: 1.86 µM (inactive)
XF498
  GI50: 0.179 µM (active)
UACC-62
  GI50: 0.223 µM (active)
SK-MEL-5
  GI50: 0.364 µM (active)
OVCAR-5
  GI50: 0.508 µM (active)
CCRF-CEM
  GI50: 0.273 µM (active)
SNB-75
  GI50: 0.245 µM (active)
SK-OV-3
  GI50: 0.522 µM (active)
SK-MEL-2
  GI50: 0.28 µM (active)
COLO 205
  GI50: 0.257 µM (active)
K562
  GI50: 0.322 µM (active)
NCI-H23
  GI50: 0.428 µM (active)
HOP-62
  GI50: 0.198 µM (active)
CAKI-1
  GI50: 0.26 µM (active)
MCF7
  GI50: 2.72 µM (inactive)
OVCAR-8
  GI50: 0.234 µM (active)
U-251
  GI50: 0.307 µM (active)
SW-620
  GI50: 0.193 µM (active)
UO-31
  GI50: 1.14 µM (inactive)
SNB-78
  GI50: 0.552 µM (active)
EKVX
  GI50: 0.345 µM (active)
HOP-18
  GI50: 0.14 µM (active)
A498
  GI50: 0.257 µM (active)
NCI-H460
  GI50: 0.129 µM (active)
SF-268
  GI50: 0.528 µM (active)
HCC 2998
  GI50: 0.251 µM (active)
NCI-H226
  GI50: 0.301 µM (active)
HCT-15
  GI50: 0.597 µM
UACC-257
  GI50: 0.337 µM (active)
SN12C
  GI50: 0.254 µM (active)
SNB-19
  GI50: 0.337 µM (active)
KM-20L2
  GI50: 0.175 µM (active)
RPMI-8226
  GI50: 0.192 µM (active)
IGROV-1
  GI50: 0.291 µM (active)
HT-29
  GI50: 0.355 µM (active)
HOP-92
  GI50: 0.0764 µM (active)
HL-60
  GI50: 0.142 µM (active)
SK-MEL-28
  GI50: 0.667 µM (active)
A549
  GI50: 0.435 µM (active)
